Data on 3 molecules can be found in patent US10130695B2, “Compositions containing combinations of bioactive molecules derived from microbiota for treatment of disease” (priority 2013, dated 2018).

Test [1] concerns Splenic naïve (CD44loCD62Lhi) CD4+ T cells. Put plainly: Treg induction in vitro (FACS). The note with it: anti-CD3/anti-CD28 mAb-coated beads, TGF-β; compared to no treatment control; FIG. 1. It is filed as cell-based. An excerpt: First, to gain mechanistic insight into the induction of Tregs by bacteria belonging to Clostridium Clusters IV, XIVa, and XVIII, germ-free mice were colonized with a cocktail of bacteria comprising bacterial strains belonging to Clostridium Cluster IV, bacterial strains belonging to Clostridium Cluster XIVa, and bacterial strains belonging to Clostridium Cluster XVIII (“Clostridium-colonized mice”). To identify metabolites potentially involved in Treg induction, the hundreds of metabolites present in the luminal composition of Clostridium-colonized, ex-germ free mice were painstakingly investigated with NMR-based metabolome analysis coupled with principal component analysis (PCA). […] The influence of acetate, propionate, and butyrate on Treg induction in vitro was measured as follows: Splenic naïve (CD44^loCD62L^hi) CD4+ T cells were stimulated with anti-CD3 and anti-CD28 mAb-coated beads and cultured in the presence of T-cell antigen receptor signaling and TGF-β with or without each of these short-chain fatty acids listed above.

The test system of test [2] is OT-I CD8 T cells with colonic lamina propria CD4+CD25+ Treg cells. The test can be described thus: Cognate antigen-driven suppression assay. The test is classed as cell-based, mice. The note with it: experiment repeated adding flagellin; after 3 days. How it is done:
Fourth, investigation was carried to determine whether bacteria belonging to Clostridium Clusters IV, XIVa, and XVIII provide bacterial antigens to T cells. To do this, assessment was carried out of the antigen specificity of Tregs accumulated in mice colonized by a mixture of 17strains belonging to Clostridium Clusters, […] (“17-mix”) using a cognate antigen-driven suppression assay. […] CD 11c+cells were isolated from spleens of SPF C57BL/6 mice, pulsed with 0.5 μM SIINFEKL (SEQ ID NO: 2) OT-I peptide alone or in combination with either of 5μM ISQAVHAAHAEINEAGR (SEQ ID NO: 3) OT-II peptide or autoclaved caecal contents from +17-mix mice, and plated at 5 x 10^4well. CD8OT-I T cells (Teff) were added to the CD11c+cell-seeded plates at 5 x 10^4/well. Then, CD4+CD25+T cells sorted from colonic LP of +17-mix mice (LP Treg) or from spleens of SPF OT-II mice (OT-II Treg) were added to the culture at the indicated ratio of Treg to Teff cells. After 3 days, all cells were harvested, stained with anti-CD4 and anti-CD8antibodies, and analysed by flow cytometry to enumerate the number of CD8 OT-I T cells. Depicted data in FIG. 4b represent average of duplicates. […]

For `CC(=O)O` [acetate], the “differentiation of Treg cells” value in test [1] was “enhanced differentiation of Treg cells”. On the same count and under the same terms, in the case of `CCC(=O)O` [propionate] it was “enhanced differentiation of Treg cells”.

B1: flagellin: flagellin (SEQ ID NO 1), an antigen highly abundant in bacteria belonging to Clostridium Clusters IV, XIVa, and XVIII (protein)
chain: MVVQHNLQAMNSNRMLGITQKTASKSTEKLSSGYAINRAADNAAGLAISEKMRKQIRGLTQASTNAEDGISSVQTAEGALTEVHDMLQRMNELAIQAANGTNSEDDRSYIQDEIDQLTQEIDRVAETTKFNETYLLKGDTKNVDAMDYTYSYKAVTTNTVARASVLAAENTATGMSVSISFAANSGKVTAADSNNLAKAIRDQGFTITTSTQNGKVVYGLELNGSDAKANYTVSTVSMEAGTFKILNSNKQVVASVTISTTASFKKVSGMSQIVTAYSVSAAYATGDVYSLYDADGNAISANKLDKYFTAGGATEAGGIATTLSANSGVPKVYDVLGKEVSAVSIASTLVTAVKDKTAALKMNFHVGADGTDNNKIKINIEAMTAKSLGVNGLKVSGSSGTNATNAIEIIAGAIKKVSTQRSALGAVQNRLEHTINNLDNIVENTTAAESGIRDTDMATEMVKYSNANILSQAGQSMLAQSNQSNQGVLQLLQ
With B1, in test [2], the “colonic Lamina Propria Treg cells specific for the antigen” value was “colonic Lamina Propria Treg cells specific for flagellin were isolated”.
